In the supplement of paper PMC11424490:

What was measured:
[1] = test system: SW837; test: combination cScore with adagrasib (Bliss gap around IC50) (%PoC); higher = stronger additive effect
Method: (§1)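 Combination screen of 179 inhibitors with the KRAS G12C inhibitor adagrasib (MRTX849) in dose matrices, CellTiter-Glo readout in NCI-H2122 (72 h), SW837 (144 h) and NCI-H358 cells. The cScore is the mean Bliss-independence gap (expected minus observed viability, in %PoC) over a 3x3 field around the IC50s of both drugs. Positive means additive, and >~10 is stated as clear additive.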

[2] = test system: NCI-H2122; test: as above
Method: as §1

| Structure (SMILES) | combination cScore with adagrasib [1] | combination cScore with adagrasib [2] |
| --- | --- | --- |
| CC(C)(C(=O)NCC(F)(F)C(F)(F)F)C(=O)N[C@@H]1C(=O)Nc2ccccc2-c2ccccc21 + C=C(F)C(=O)N1CCN(c2nc(OC[C@@H]3CCCN3C)nc3c2CCN(c2cccc4cccc(Cl)c24)C3)C[C@@H]1CC#N [adagrasib] | 9.86 | 6.57 |
| NC(=O)c1ccc(-c2nc(-c3ccccn3)c(-c3ccc4c(c3)OCO4)[nH]2)cc1 + C=C(F)C(=O)N1CCN(c2nc(OC[C@@H]3CCCN3C)nc3c2CCN(c2cccc4cccc(Cl)c24)C3)C[C@@H]1CC#N [adagrasib] | -9.94 | 0.05 |
| c1ccc(-c2nn3c(c2-c2ccnc4cc(OCCN5CCOCC5)ccc24)CCC3)nc1 + C=C(F)C(=O)N1CCN(c2nc(OC[C@@H]3CCCN3C)nc3c2CCN(c2cccc4cccc(Cl)c24)C3)C[C@@H]1CC#N [adagrasib] | 0.67 | -21.2 |
| CC1(C)CCC(CN2CCN(c3ccc(C(=O)NS(=O)(=O)c4ccc(NCC5CCOCC5)c([N+](=O)[O-])c4)c(Oc4cnc5[nH]ccc5c4)c3)CC2)=C(c2ccc(Cl)cc2)C1 [ABT-199] + C=C(F)C(=O)N1CCN(c2nc(OC[C@@H]3CCCN3C)nc3c2CCN(c2cccc4cccc(Cl)c24)C3)C[C@@H]1CC#N [adagrasib] | -3.71 | 3.14 |
| CO[C@H]1/C=C/C[C@H](C)[C@@H](C)S(=O)(=O)NC(=O)c2ccc3c(c2)N(C[C@@H]2CC[C@H]21)C[C@@]1(CCCc2cc(Cl)ccc21)CO3 [AMG176] + C=C(F)C(=O)N1CCN(c2nc(OC[C@@H]3CCCN3C)nc3c2CCN(c2cccc4cccc(Cl)c24)C3)C[C@@H]1CC#N [adagrasib] | -0.8 | 5.81 |
| COc1cc(OC2CCN(C)CC2)ccc1Nc1ncc2c(n1)n(C1CCCC1)c(=O)n2C [AZ3146] + C=C(F)C(=O)N1CCN(c2nc(OC[C@@H]3CCCN3C)nc3c2CCN(c2cccc4cccc(Cl)c24)C3)C[C@@H]1CC#N [adagrasib] | 9.79 | -1.25 |
| Cc1cc(Nc2nc(N[C@@H](C)c3ncc(F)cn3)ncc2Cl)[nH]n1 [AZD-1480] + C=C(F)C(=O)N1CCN(c2nc(OC[C@@H]3CCCN3C)nc3c2CCN(c2cccc4cccc(Cl)c24)C3)C[C@@H]1CC#N [adagrasib] | 1.14 | 3.87 |
| NC(=O)Nc1cc(-c2cccc(F)c2)sc1C(=O)N[C@H]1CCCNC1 [AZD-7762] + C=C(F)C(=O)N1CCN(c2nc(OC[C@@H]3CCCN3C)nc3c2CCN(c2cccc4cccc(Cl)c24)C3)C[C@@H]1CC#N [adagrasib] | -2.72 | -0.23 |
| COc1cc2cc(c1Cl)N(C)C(=O)C[C@H](OC(=O)C(C)C)[C@]1(C)O[C@@H]1[C@H](C)[C@@H]1C[C@@](O)(NC(=O)O1)[C@H](OC)/C=C/C=C(\C)C2 [Ansamitocin P3] + C=C(F)C(=O)N1CCN(c2nc(OC[C@@H]3CCCN3C)nc3c2CCN(c2cccc4cccc(Cl)c24)C3)C[C@@H]1CC#N [adagrasib] | 2.67 | -2.93 |
| Cc1ncc([N+](=O)[O-])n1CCOC(=O)NC(Nc1ncccn1)C(Cl)(Cl)Cl (stereo not drawn) [Apcin] + C=C(F)C(=O)N1CCN(c2nc(OC[C@@H]3CCCN3C)nc3c2CCN(c2cccc4cccc(Cl)c24)C3)C[C@@H]1CC#N [adagrasib] | -0.93 | 2.71 |
| Nc1ncn([C@@H]2O[C@H](CO)[C@@H](O)[C@H]2O)c(=O)n1 [Azacitidine] + C=C(F)C(=O)N1CCN(c2nc(OC[C@@H]3CCCN3C)nc3c2CCN(c2cccc4cccc(Cl)c24)C3)C[C@@H]1CC#N [adagrasib] | 9.12 | -1.39 |
| CCN1CCN(c2ccc(Nc3cc(N(C)C(=O)Nc4c(Cl)c(OC)cc(OC)c4Cl)ncn3)cc2)CC1 [BGJ398] + C=C(F)C(=O)N1CCN(c2nc(OC[C@@H]3CCCN3C)nc3c2CCN(c2cccc4cccc(Cl)c24)C3)C[C@@H]1CC#N [adagrasib] | 3.09 | -3.17 |
| O=C(Cc1ccccc1)Nc1nnc(CCSCCc2nnc(NC(=O)Cc3ccccc3)s2)s1 [BPTES] + C=C(F)C(=O)N1CCN(c2nc(OC[C@@H]3CCCN3C)nc3c2CCN(c2cccc4cccc(Cl)c24)C3)C[C@@H]1CC#N [adagrasib] | 7.09 | 8.57 |
| Nc1nc(Nc2ccc3c(c2)CC[C@@H](N2CCCC2)CC3)nn1-c1cc2c(nn1)-c1ccccc1CCC2 [Bemcentinib] + C=C(F)C(=O)N1CCN(c2nc(OC[C@@H]3CCCN3C)nc3c2CCN(c2cccc4cccc(Cl)c24)C3)C[C@@H]1CC#N [adagrasib] | -0.26 | -0.08 |
| C=C(c1ccc(C(=O)O)cc1)c1cc2c(cc1C)C(C)(C)CCC2(C)C [Bexarotene] + C=C(F)C(=O)N1CCN(c2nc(OC[C@@H]3CCCN3C)nc3c2CCN(c2cccc4cccc(Cl)c24)C3)C[C@@H]1CC#N [adagrasib] | 0.535 | -4.01 |
| CC(O)(CS(=O)(=O)c1ccc(F)cc1)C(=O)Nc1ccc(C#N)c(C(F)(F)F)c1 (stereo not drawn) [Bicalutamide] + C=C(F)C(=O)N1CCN(c2nc(OC[C@@H]3CCCN3C)nc3c2CCN(c2cccc4cccc(Cl)c24)C3)C[C@@H]1CC#N [adagrasib] | 2.23 | 4.44 |
| CO[C@H]1CC[C@H](n2c([C@@H]3CCCC(=O)N3c3ccc(F)c(F)c3)nc3cc(-c4c(C)noc4C)ccc32)CC1 [CCS1477] + C=C(F)C(=O)N1CCN(c2nc(OC[C@@H]3CCCN3C)nc3c2CCN(c2cccc4cccc(Cl)c24)C3)C[C@@H]1CC#N [adagrasib] | 7.35 | -1.66 |
| O=C(O)CCCCC(CCSCc1ccccc1)SCc1ccccc1 (stereo not drawn) [CPI-613] + C=C(F)C(=O)N1CCN(c2nc(OC[C@@H]3CCCN3C)nc3c2CCN(c2cccc4cccc(Cl)c24)C3)C[C@@H]1CC#N [adagrasib] | 1.41 | -5.48 |
| CCCCCOC(=O)Nc1nc(=O)n([C@@H]2O[C@H](C)[C@@H](O)[C@H]2O)cc1F [Capecitabin] + C=C(F)C(=O)N1CCN(c2nc(OC[C@@H]3CCCN3C)nc3c2CCN(c2cccc4cccc(Cl)c24)C3)C[C@@H]1CC#N [adagrasib] | 2.14 | -6.31 |
| C[C@H](CS)C(=O)N1CCC[C@H]1C(=O)O [Captopril] + C=C(F)C(=O)N1CCN(c2nc(OC[C@@H]3CCCN3C)nc3c2CCN(c2cccc4cccc(Cl)c24)C3)C[C@@H]1CC#N [adagrasib] | -3.8 | -0.24 |
| O=C(O)C1(C(=O)O)CCC1.[NH2-].[NH2-].[Pt+2] [Carboplatin] + C=C(F)C(=O)N1CCN(c2nc(OC[C@@H]3CCCN3C)nc3c2CCN(c2cccc4cccc(Cl)c24)C3)C[C@@H]1CC#N [adagrasib] | -6.32 | -1.99 |
| COc1cc2c(Oc3ccc4[nH]c(C)cc4c3F)ncnc2cc1OCCCN1CCCC1 [Cediranib] + C=C(F)C(=O)N1CCN(c2nc(OC[C@@H]3CCCN3C)nc3c2CCN(c2cccc4cccc(Cl)c24)C3)C[C@@H]1CC#N [adagrasib] | -0.83 | -4.17 |
| N.N.[Cl][Pt][Cl] [Cisplatin] + C=C(F)C(=O)N1CCN(c2nc(OC[C@@H]3CCCN3C)nc3c2CCN(c2cccc4cccc(Cl)c24)C3)C[C@@H]1CC#N [adagrasib] | -1.26 | -1.07 |
| Nc1nc(Cl)nc2c1ncn2[C@@H]1O[C@H](CO)[C@@H](O)[C@@H]1F [Clofarabine] + C=C(F)C(=O)N1CCN(c2nc(OC[C@@H]3CCCN3C)nc3c2CCN(c2cccc4cccc(Cl)c24)C3)C[C@@H]1CC#N [adagrasib] | 1.46 | -3.89 |
| O=C(c1ccc(F)c(F)c1Nc1ccc(I)cc1F)N1CC(O)([C@@H]2CCCCN2)C1 [Cobimetinib] + C=C(F)C(=O)N1CCN(c2nc(OC[C@@H]3CCCN3C)nc3c2CCN(c2cccc4cccc(Cl)c24)C3)C[C@@H]1CC#N [adagrasib] | 13.2 | 2.78 |
| Nc1ccn([C@@H]2O[C@H](CO)[C@@H](O)[C@@H]2O)c(=O)n1 [Cytarabin] + C=C(F)C(=O)N1CCN(c2nc(OC[C@@H]3CCCN3C)nc3c2CCN(c2cccc4cccc(Cl)c24)C3)C[C@@H]1CC#N [adagrasib] | 6.75 | -0.23 |
| CC(C)(C)c1nc(-c2cccc(NS(=O)(=O)c3c(F)cccc3F)c2F)c(-c2ccnc(N)n2)s1 [Dabrafenib] + C=C(F)C(=O)N1CCN(c2nc(OC[C@@H]3CCCN3C)nc3c2CCN(c2cccc4cccc(Cl)c24)C3)C[C@@H]1CC#N [adagrasib] | -0.35 | -9.32 |
| Nc1ncn([C@H]2C[C@H](O)[C@@H](CO)O2)c(=O)n1 [Decitabine] + C=C(F)C(=O)N1CCN(c2nc(OC[C@@H]3CCCN3C)nc3c2CCN(c2cccc4cccc(Cl)c24)C3)C[C@@H]1CC#N [adagrasib] | -0.47 | 3.82 |
| C[C@@H]1C[C@H]2[C@@H]3CCC4=CC(=O)C=C[C@]4(C)[C@@]3(F)[C@@H](O)C[C@]2(C)[C@@]1(O)C(=O)CO [Dexamethasone] + C=C(F)C(=O)N1CCN(c2nc(OC[C@@H]3CCCN3C)nc3c2CCN(c2cccc4cccc(Cl)c24)C3)C[C@@H]1CC#N [adagrasib] | -0.93 | -4.66 |
